# Structures can show the parent of a compound that is named as a salt. Where two headings read alike, the source gives them in different places.
# Tested on: Acinetobacter baumannii ATCC17978
# Experiment: Antimicrobial susceptibility testing: 90% growth inhibitory concentration (IC90) determination, Iso-Sensitest broth
# Assay type: cell-based
# Summary of the method: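 A. baumannii ATCC17978 grown in Iso-Sensitest broth across 10 compound concentrations at 35±2 °C.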
# [1] = Acinetobacter baumannii, ATCC17978, 16 h, read-out: ATCC17978 IC90, 90% growth inhibitory concentration, Acinetobacter baumannii ATCC17978, Iso-Sensitest broth, OD 600 nm over 16 h
# [2] = 90% growth inhibitory concentration, Acinetobacter baumannii ATCC17978, Iso-Sensitest broth, OD 600 nm over 16 h, read-out: ATCC17978 IC90
IC90 [2],Structure (SMILES),IC90 [1]
,"COc1ccc(-c2cnc3c(Nc4ccc(C(=O)N5CCC(C(=O)N[C@@H]6CCNC6)CC5)c(C)c4)nccn23)cc1F [Example 59, (R)-1-(4-((3-(3-fluoro-4-methoxyphenyl)imidazo[1,2-a]pyrazin-8-yl)amino)-2-methylbenzoyl)-N-(pyrrolidin-3-yl)piperidine-4-carboxamide 2,2,2-trifluoroacetate]",230 nM
,"CCc1cc(Nc2nccn3c(-c4ccc(OC)c(F)c4)cnc23)ccc1C(=O)N1CCC(C(=O)NCCNC)CC1 [Example 330, 1-[2-ethyl-4-[[3-(3-fluoro-4-methoxyphenyl)imidazo[1,2-a]pyrazin-8-yl]amino]benzoyl]-N-[2-(methylamino)ethyl]piperidine-4-carboxamide; hydrochloride]",400 nM
,"COc1ccc(-c2cnc3c(Nc4ccc(C(=O)N5CCC(C(=O)NCC6CNC6)CC5)c(C)c4)nccn23)c(F)c1F [Example 75, hydrochloride]",160 nM
220 nM,"COc1ccc(-c2cnc3c(Nc4ccc(C(=O)N5CCN(C(=O)[C@H]6CCNC[C@@H]6O)CC5)c(C)c4)nccn23)c(Cl)c1F [Example 219, [4-[[3-(2-chloro-3-fluoro-4-methoxy-phenyl)imidazo[1,2-a]pyrazin-8-yl]amino]-2-methyl-phenyl]-[4-[(3R,4S)-3-hydroxypiperidine-4-carbonyl]piperazin-1-yl]methanone formate]",
,"Cc1cc(Nc2nccn3c(-c4ccc(OC(F)F)cc4)cnc23)ccc1C(=O)N1CCN(C(=O)[C@@H](N)CCCNC(N)=O)CC1 [Example 262, [(4S)-4-amino-5-[4-[4-[[3-[4-(difluoromethoxy)phenyl]imi-dazo[1,2-a]pyrazin-8-yl]amino]-2-methylbenzoyl]piperazin-1-yl]-5-oxopentyl]urea]",1000 nM
,"Cc1cc(Nc2nccn3c(-c4ccc(OC(F)F)cc4)cnc23)ccc1C(=O)N1CCN(C(=O)[C@@H](N)CCC(N)=O)CC1 [Example 525, (4S)-4-amino-5-[4-[4-[[3-[4-(difluoromethoxy)phenyl]imi-dazo[1,2-a]pyrazin-8-yl]amino]-2-methylbenzoyl]piperazin-1-yl]-5-oxopentanamide; hydrochlo-ride]",510 nM
,"Cc1cc(Nc2nccn3c(-c4ccc(OC(F)F)cc4)cnc23)ccc1C(=O)N1CCN(C(=O)c2cc(C(=O)O)ncn2)CC1 [Example 269, 6-[4-[4-[[3-[4-(difluoromethoxy)phenyl]imi-dazo[1,2-a]pyrazin-8-yl]amino]-2-methylbenzoyl]piperazine-1-carbonyl]pyrimidine-4-carboxylic acid]",2000 nM
,"COc1ccc(-c2cnc3c(Nc4ccc(C(=O)N5CCN(C(=O)[C@H](CCCCN)NC(=O)[C@@H](N)CCC(=O)O)CC5)c(C)c4)nccn23)c(F)c1F [Example 537, (4S)-4-amino-5-[[(2S)-6-amino-1-[4-[4-[[3-(2,3-difluoro-4-methoxyphenyl)imidazo[1,2-a]pyrazin-8-yl]amino]-2-methylbenzoyl]piperazin-1-yl]-1-oxohexan-2-yl]amino]-5-oxopentanoic acid; hydrochloride]",4400 nM
,"Cc1cc(Nc2nccn3c(-c4ccc(OC(F)F)cc4)cnc23)ccc1C(=O)N1CCN(C(=O)[C@H]2CCNC[C@@H]2O)CC1 [Example 507, [4-[[3-[4-(difluoromethoxy)phenyl]imi-dazo[1,2-a]pyrazin-8-yl]amino]-2-methylphenyl]-[4-[(3R,4S)-3-hydroxypiperidine-4-carbonyl]piperazin-1-yl]methanone]",510 nM
200 nM,"COc1ccc(-c2cnc3c(Nc4ccc(C(=O)N5CCC(C(=O)NCCCN(C)C)CC5)c(C)c4)nccn23)cc1F [Example 46, N-[3-(dimethylamino)propyl]-1-[4-[[3-(3-fluoro-4-methoxyphenyl)imidazo[1,2-a]pyrazin-8-yl]amino]-2-methylbenzoyl]piperidine-4-carboxamide]",
1200 nM,"COc1ccc(-c2cnc3c(Nc4ccc(C(=O)N5CCNC(C6CC6)C5)c(C)c4)nccn23)cc1F (centres unmarked) [Example 424, (3-cyclopropylpiperazin-1-yl)-[4-[[3-(3-fluoro-4-methoxyphenyl)imidazo[1,2-a]pyrazin-8-yl]amino]-2-methylphenyl]methanone; hy-drochloride]",
1100 nM,"COc1ccc(-c2cnc3c(Nc4ccc(C(=O)N5CCNC(CO)C5)c(C)c4)nccn23)cc1F (centres unmarked) [Example 422, [4-[[3-(3-fluoro-4-methoxyphenyl)imidazo[1,2-a]pyrazin-8-yl]amino]-2-methylphenyl]-[3-(hydroxymethyl)piperazin-1-yl]methanone]",
,"COc1ccc(-c2cnc3c(Nc4ccc(C(=O)N5CCN(C(=O)[C@H]6CCNC6)CC5)c(C)c4)nccn23)c(F)c1F [Example 460, [4-[[3-(2,3-difluoro-4-methoxyphenyl)imidazo[1,2-a]pyrazin-8-yl]amino]-2-methylphenyl]-[4-[(3S)-pyrrolidine-3-carbonyl]piperazin-1-yl]methanone; hydrochloride]",83 nM
,"Cc1cc(Nc2nccn3c(-c4ccc(OC(F)F)cc4)cnc23)ccc1C(=O)N1CCOCC1CN (centres unmarked) [Example 378, [3-(aminomethyl)morpholin-4-yl]-[4-[[3-[4-(difluoromethoxy)phenyl]imi-dazo[1,2-a]pyrazin-8-yl]amino]-2-methylphenyl]methanone; hy-drochloride]",2500 nM
130 nM,"Cc1cc(Nc2nccn3c(-c4ccc(OCC#N)c(F)c4F)cnc23)ccc1C(=O)N1CCN(C(=O)N2CCNCC2)CC1 [Example 137, 2-[2,3-difluoro-4-[8-[3-methyl-4-[4-(piperazine-1-carbonyl)piperazine-1-carbonyl]anilino]imidazo[1,2-a]pyrazin-3-yl]phenoxy]acetonitrile formate]",
,"CNCCNC(=O)N1CCN(C(=O)c2ccc(Nc3nccn4c(-c5ccc(OC(F)F)cc5)cnc34)cc2C)CC1 [Example 524, 4-[4-[[3-[4-(difluoromethoxy)phenyl]imi-dazo[1,2-a]pyrazin-8-yl]amino]-2-methylbenzoyl]-N-[2-(methylamino)eth-yl]piperazine-1-carboxamide; hydrochloride]",470 nM
170 nM,"COc1ccc(-c2cnc3c(Nc4ccc(C(=O)N5CCN(C(=O)N6CCO[C@@H](CN)C6)CC5)c(C)c4)nccn23)c(F)c1F [Example 145, [4-[(2S)-2-(aminomethyl)morpholine-4-carbonyl]piperazin-1-yl]-[4-[[3-(2,3-difluoro-4-methoxy-phenyl)imidazo[1,2-a]pyrazin-8-yl]amino]-2-methyl-phenyl]methanone formate]",
370 nM,"Cc1cc(Nc2nccn3c(-c4ccc(OC(C)C#N)c(F)c4F)cnc23)ccc1C(=O)N1CCN(CCCN(C)C)CC1 (centres unmarked) [Example 237, 2-[4-[8-[4-[4-[3-(dimethylamino)pro-pyl]piperazine-1-carbonyl]-3-methyl-anilino]imidazo[1,2-a]pyrazin-3-yl]-2,3-difluoro-phenoxy]propanenitrile formate]",
,"CCc1cc(Nc2nccn3c(-c4ccc(OS(C)(=O)=O)c(F)c4F)cnc23)ccc1C(=O)N1CCN(C(=O)[C@@H]2C[C@@H](O)CN2)CC1 [Example 454, [4-[8-[3-ethyl-4-[4-[(2S,4R)-4-hydroxypyrrolidine-2-carbonyl]piperazine-1-carbonyl]anilino]imidazo[1,2-a]pyrazin-3-yl]-2,3-difluorophenyl] methanesulfonate; formic acid]",4700 nM
550 nM,"CCc1cc(Nc2nccn3c(-c4ccc(OCC#N)c(F)c4F)cnc23)ccc1C(=O)N1CCN(C(=O)[C@@H]2C[C@@H](O)CN2)CC1 [Example 510, 2-[4-[8-[3-ethyl-4-[4-[(2S,4R)-4-hydroxypyrrolidine-2-carbonyl]piperazine-1-carbonyl]annilino]imidazo[1,2-a]pyrazin-3-yl]-2,3-difluorophenoxy]acetonitrile; formic acid]",
580 nM,"CCOC(=O)NC1CCN(C(=O)c2ccc(Nc3nccn4c(-c5ccc(OC(F)F)cc5)cnc34)cc2C)CC1 [Example 11, ethyl (1-(4-((3-(4-(difluoromethoxy)phenyl)imidazo[1,2-a]pyrazin-8-yl)amino)-2-methylbenzoyl)piperidin-4-yl)carbamate]",
170 nM,"CNCCCNC(=O)C1CCN(C(=O)c2ccc(Nc3nccn4c(-c5ccc(OCC#N)c(F)c5F)cnc34)cc2C)CC1 [Example 242, 1-(4-((3-(4-(cyanomethoxy)-2,3-difluorophenyl)imidazo[1,2-a]pyrazin-8-yl)amino)-2-methylbenzoyl)-N-(3-(methylamino)propyl)piperidine-4-carboxamide]",
210 nM,"COc1ccc(-c2cnc3c(Nc4ccc(C(=O)N5CCN(C(=O)N[C@@H](C)CN)CC5)c(C)c4)nccn23)c(F)c1F [Example 147, N-[(1S)-2-amino-1-methyl-ethyl]-4-[4-[[3-(2,3-difluoro-4-methoxy-phenyl)imidazo[1,2-a]pyrazin-8-yl]amino]-2-methyl-benzoyl]piperazine-1-carboxamide hydrochloride]",
,"Cc1cc(Nc2nccn3c(-c4ccc(OC(F)F)cc4)cnc23)ccc1C(=O)N1CCN(C(=O)[C@H]2CCNC2)CC1 [Example 495, [4-[[3-[4-(difluoromethoxy)phenyl]imi-dazo[1,2-a]pyrazin-8-yl]amino]-2-methylphenyl]-[4-[(3S)-pyrrolidine-3-carbonyl]piperazin-1-yl]methanone; hydrochloride]",320 nM
180 nM,"COc1ccc(-c2cnc3c(Nc4ccc(C(=O)N5CCN(C(=O)NC[C@H](C)N)CC5)c(C)c4)nccn23)c(Cl)c1F [Example 156, N-[(2S)-2-aminopropyl]-4-[4-[[3-(2-chloro-3-fluoro-4-methoxy-phenyl)imidazo[1,2-a]pyrazin-8-yl]amino]-2-methyl-benzoyl]piperazine-1-carboxamide formate]",
,"Cc1cc(Nc2nccn3c(-c4ccc(OC(F)F)cc4)cnc23)ccc1C(=O)N1CCC2(COC2)C1 [Example 365, [4-[[3-[4-(difluoromethoxy)phenyl]imi-dazo[1,2-a]pyrazin-8-yl]amino]-2-methylphenyl]-(2-oxa-7-azaspiro[3.4]octan-7-yl)methanone]",550 nM
